Reference: paper PMC5362750, “Discovery of Potent, Selective, and Orally Bioavailable Small-Molecule Modulators of the Mediator Complex-Associated Kinases CDK8 and CDK19” (Journal of Medicinal Chemistry, 2016)

Experiments:
EPHB2 = target: T1, EPHB2 (Homo sapiens, UniProt P29323); assay: Kinase panel (Millipore); assay type: biochemical; conditions: 1 µM, ATP at Km
T1 construct: purchased Millipore (KinaseProfiler) kinase panel

EGFR(T790M,L858R) = EGFR(T790M,L858R) (Homo sapiens, UniProt P00533, L858R/T790M); conditions: 1 µM, ATP at Km
[1] = target: T2, choline transporter (CHT1) (h) (Homo sapiens, UniProt Q9GZV3); assay: CEREP binding assay; conditions: antagonist radioligand, read-out: % Inhibition of Control Specific Binding
T2 construct: CEREP

AMPA = conditions: 10 µM, agonist radioligand
DMPK = DMPK (Homo sapiens, UniProt Q09013); assay: Kinase panel (Millipore); assay type: biochemical; conditions: 1 µM, ATP at Km
EGFR(L858R) = EGFR(L858R) (Homo sapiens, UniProt P00533, L858R); conditions: 1 µM, ATP at Km
SAPK3 = SAPK3 (Homo sapiens, UniProt P53778); assay: Kinase panel (Millipore); assay type: biochemical; conditions: 1 µM, ATP at Km
Chain of SAPK3 (P53778 whole entry): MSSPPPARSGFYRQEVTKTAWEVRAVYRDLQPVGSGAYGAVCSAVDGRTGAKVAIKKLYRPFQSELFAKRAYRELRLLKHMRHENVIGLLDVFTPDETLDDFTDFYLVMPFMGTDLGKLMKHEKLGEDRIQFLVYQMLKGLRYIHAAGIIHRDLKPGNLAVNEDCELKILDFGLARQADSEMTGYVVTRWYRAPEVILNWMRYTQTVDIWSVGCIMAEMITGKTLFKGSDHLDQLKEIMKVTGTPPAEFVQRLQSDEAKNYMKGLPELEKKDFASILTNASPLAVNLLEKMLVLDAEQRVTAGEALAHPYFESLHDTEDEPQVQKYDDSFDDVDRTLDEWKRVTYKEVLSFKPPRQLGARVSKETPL

CKIT(V654A) = CKIT(V654A) (Homo sapiens, UniProt P10721, V654A); conditions: 1 µM, ATP at Km
H3 (h) = target: T3, H3 (h) (Homo sapiens, UniProt Q9Y5N1); assay: CEREP binding assay; conditions: agonist radioligand, read-out: % Inhibition of Control Specific Binding
T3 construct: purchased Millipore (KinaseProfiler) kinase panel

alpha 2B (h) = alpha 2B (h) (Homo sapiens, UniProt P18089); assay: biochemical; conditions: read-out: % Inhibition of Control Specific Binding
Chain of alpha 2B (h) (P18089 whole entry): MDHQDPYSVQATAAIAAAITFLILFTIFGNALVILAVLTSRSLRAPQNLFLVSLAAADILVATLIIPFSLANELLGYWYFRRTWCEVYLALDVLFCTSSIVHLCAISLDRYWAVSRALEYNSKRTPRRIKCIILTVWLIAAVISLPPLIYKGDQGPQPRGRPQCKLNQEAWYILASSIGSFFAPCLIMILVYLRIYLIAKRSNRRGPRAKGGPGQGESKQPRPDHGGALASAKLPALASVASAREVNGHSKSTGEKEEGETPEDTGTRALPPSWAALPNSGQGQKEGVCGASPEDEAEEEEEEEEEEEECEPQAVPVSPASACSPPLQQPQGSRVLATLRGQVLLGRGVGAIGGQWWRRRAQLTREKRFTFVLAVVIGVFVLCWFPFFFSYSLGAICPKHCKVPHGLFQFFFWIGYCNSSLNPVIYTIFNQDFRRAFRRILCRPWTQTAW

PDGFRALPHA = target: T4, PDGFRALPHA (Homo sapiens, UniProt P16234); assay: Kinase panel (Millipore); assay type: biochemical; conditions: 1 µM, ATP at Km
T4 construct: purchased Millipore (KinaseProfiler) kinase panel

EPHA5 = target: T5, EPHA5 (Homo sapiens, UniProt P54756); assay: Kinase panel (Millipore); assay type: biochemical; conditions: 1 µM, ATP at Km
T5 construct: purchased Millipore (KinaseProfiler) kinase panel
T5 sequence (P54756 25-1037): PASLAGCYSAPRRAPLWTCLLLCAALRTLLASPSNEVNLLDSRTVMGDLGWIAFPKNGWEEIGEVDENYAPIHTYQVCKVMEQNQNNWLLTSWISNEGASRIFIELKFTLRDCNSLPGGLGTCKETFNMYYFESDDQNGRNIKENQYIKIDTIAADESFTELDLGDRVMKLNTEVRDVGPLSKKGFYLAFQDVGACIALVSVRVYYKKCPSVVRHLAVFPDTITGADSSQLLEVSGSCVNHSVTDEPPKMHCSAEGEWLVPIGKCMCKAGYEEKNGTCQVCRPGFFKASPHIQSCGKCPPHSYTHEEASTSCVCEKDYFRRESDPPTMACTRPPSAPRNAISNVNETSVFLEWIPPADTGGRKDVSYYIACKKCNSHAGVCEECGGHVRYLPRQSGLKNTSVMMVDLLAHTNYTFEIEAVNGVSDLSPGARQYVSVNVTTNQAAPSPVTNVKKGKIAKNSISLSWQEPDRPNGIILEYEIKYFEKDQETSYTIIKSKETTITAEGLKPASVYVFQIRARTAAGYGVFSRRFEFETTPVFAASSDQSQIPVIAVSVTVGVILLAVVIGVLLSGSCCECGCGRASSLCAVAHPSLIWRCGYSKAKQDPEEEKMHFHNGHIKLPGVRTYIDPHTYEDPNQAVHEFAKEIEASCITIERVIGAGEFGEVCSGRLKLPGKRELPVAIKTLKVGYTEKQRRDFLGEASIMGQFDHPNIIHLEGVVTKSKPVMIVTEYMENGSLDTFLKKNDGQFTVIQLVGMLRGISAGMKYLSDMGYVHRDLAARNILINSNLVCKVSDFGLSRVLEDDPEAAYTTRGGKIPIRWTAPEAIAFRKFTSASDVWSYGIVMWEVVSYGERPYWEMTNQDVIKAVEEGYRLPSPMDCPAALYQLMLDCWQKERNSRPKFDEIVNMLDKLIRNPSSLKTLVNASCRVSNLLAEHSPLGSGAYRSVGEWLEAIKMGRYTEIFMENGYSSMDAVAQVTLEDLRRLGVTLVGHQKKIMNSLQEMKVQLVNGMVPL

A1 (h) = A1 (h) (Homo sapiens, UniProt P30542); assay: CEREP binding assay; conditions: agonist radioligand, read-out: % Inhibition of Control Specific Binding
AXL = target: T6, AXL (Homo sapiens, UniProt P30530); assay: Kinase panel (Millipore); assay type: biochemical; conditions: 1 µM, ATP at Km
T6 construct: purchased Millipore (KinaseProfiler) kinase panel

DDR2 = DDR2 (Homo sapiens, UniProt Q16832); assay: Kinase panel (Millipore); assay type: biochemical; conditions: 1 µM, ATP at Km
MINK = target: T7, MINK (Homo sapiens, UniProt Q8N4C8); assay: Kinase panel (Millipore); assay type: biochemical; conditions: 1 µM, ATP at Km
T7 construct: purchased Millipore (KinaseProfiler) kinase panel

PKD2 = target: T8, PKD2 (Homo sapiens, UniProt Q9BZL6); assay: Kinase panel (Millipore); assay type: biochemical; conditions: 1 µM, ATP at Km
T8 construct: purchased Millipore (KinaseProfiler) kinase panel

PASK = target: T9, PASK (Homo sapiens, UniProt Q96RG2); assay: Kinase panel (Millipore); assay type: biochemical; conditions: 1 µM, ATP at Km
T9 construct: purchased Millipore (KinaseProfiler) kinase panel
T9 sequence (Q96RG2 whole entry): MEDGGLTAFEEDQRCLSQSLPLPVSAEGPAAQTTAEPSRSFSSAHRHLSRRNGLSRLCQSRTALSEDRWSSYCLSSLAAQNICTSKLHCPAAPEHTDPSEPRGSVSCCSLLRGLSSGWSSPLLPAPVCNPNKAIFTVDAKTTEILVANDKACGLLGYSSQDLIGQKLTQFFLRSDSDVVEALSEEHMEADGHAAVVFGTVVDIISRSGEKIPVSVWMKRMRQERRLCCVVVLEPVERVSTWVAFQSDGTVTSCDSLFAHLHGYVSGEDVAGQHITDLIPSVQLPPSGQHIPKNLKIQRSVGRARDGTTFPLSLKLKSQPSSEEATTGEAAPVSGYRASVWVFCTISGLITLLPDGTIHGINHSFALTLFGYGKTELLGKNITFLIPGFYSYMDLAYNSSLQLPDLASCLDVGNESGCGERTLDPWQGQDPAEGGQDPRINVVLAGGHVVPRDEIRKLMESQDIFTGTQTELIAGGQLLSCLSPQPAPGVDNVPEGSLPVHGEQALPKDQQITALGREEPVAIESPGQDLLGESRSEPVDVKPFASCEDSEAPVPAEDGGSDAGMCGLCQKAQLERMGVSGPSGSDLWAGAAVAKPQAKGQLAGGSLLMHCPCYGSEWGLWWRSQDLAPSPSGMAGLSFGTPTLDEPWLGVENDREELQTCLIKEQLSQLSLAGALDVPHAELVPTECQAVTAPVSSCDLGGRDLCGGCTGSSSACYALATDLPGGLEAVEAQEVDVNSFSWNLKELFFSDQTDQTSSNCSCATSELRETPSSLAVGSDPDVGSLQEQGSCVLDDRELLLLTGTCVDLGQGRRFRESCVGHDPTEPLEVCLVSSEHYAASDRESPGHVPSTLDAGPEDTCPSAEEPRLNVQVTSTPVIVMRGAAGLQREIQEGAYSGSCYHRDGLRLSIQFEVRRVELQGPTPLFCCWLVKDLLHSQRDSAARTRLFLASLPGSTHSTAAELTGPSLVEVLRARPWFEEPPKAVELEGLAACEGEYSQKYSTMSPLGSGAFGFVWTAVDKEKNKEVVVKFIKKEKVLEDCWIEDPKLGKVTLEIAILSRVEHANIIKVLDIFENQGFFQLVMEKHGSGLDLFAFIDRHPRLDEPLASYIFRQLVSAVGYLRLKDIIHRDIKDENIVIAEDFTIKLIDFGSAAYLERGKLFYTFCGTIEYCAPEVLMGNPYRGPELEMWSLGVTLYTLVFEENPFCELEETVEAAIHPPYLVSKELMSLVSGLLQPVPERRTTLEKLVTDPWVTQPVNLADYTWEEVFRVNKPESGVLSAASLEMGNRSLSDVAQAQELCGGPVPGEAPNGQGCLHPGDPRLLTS

GSK3BETA = GSK3BETA (Homo sapiens, UniProt P49841); assay: Kinase panel (Millipore); assay type: biochemical; conditions: 1 µM, ATP at Km
CK1GAMMA2 = CK1GAMMA2 (Homo sapiens, UniProt P78368); assay: Kinase panel (Millipore); assay type: biochemical; conditions: 1 µM, ATP at Km
CHK2 = target: T10, CHK2 (Homo sapiens, UniProt O96017); assay: Kinase panel (Millipore); assay type: biochemical; conditions: 1 µM, ATP at Km
T10 construct: purchased Millipore (KinaseProfiler) kinase panel
T10 sequence (O96017 whole entry): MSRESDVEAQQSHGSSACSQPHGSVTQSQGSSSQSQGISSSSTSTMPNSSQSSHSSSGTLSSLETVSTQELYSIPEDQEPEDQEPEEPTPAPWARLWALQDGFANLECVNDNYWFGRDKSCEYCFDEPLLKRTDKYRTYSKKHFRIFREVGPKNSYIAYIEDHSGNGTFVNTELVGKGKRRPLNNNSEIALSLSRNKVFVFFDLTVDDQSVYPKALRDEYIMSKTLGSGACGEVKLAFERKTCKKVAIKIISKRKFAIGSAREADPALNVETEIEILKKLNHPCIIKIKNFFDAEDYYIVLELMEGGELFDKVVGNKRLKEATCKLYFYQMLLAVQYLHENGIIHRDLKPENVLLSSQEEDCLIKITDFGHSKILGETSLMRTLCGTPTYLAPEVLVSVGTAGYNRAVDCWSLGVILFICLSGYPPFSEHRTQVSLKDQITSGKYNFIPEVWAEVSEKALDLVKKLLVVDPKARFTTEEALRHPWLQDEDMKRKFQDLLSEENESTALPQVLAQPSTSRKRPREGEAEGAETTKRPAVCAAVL

TAK1 = target: T11, TAK1 (Homo sapiens, UniProt O43318); assay: Kinase panel (Millipore); assay type: biochemical; conditions: 1 µM, ATP at Km
T11 construct: purchased Millipore (KinaseProfiler) kinase panel

NLK = target: T12, NLK (Homo sapiens, UniProt Q9UBE8); assay: Kinase panel (Millipore); assay type: biochemical; conditions: 1 µM, ATP at Km
T12 construct: purchased Millipore (KinaseProfiler) kinase panel

DAPK1 = target: T13, DAPK1 (Homo sapiens, UniProt P53355); assay: Kinase panel (Millipore); assay type: biochemical; conditions: 1 µM, ATP at Km
T13 construct: purchased Millipore (KinaseProfiler) kinase panel

IR = target: T14, IR (Homo sapiens, UniProt P06213); assay: Kinase panel (Millipore); assay type: biochemical; conditions: 1 µM, ATP at Km
T14 construct: purchased Millipore (KinaseProfiler) kinase panel

[2] = target: N neuronal alpha 4beta 2 (h) (Homo sapiens, UniProt P17787+P43681); assay: biochemical; conditions: read-out: % Inhibition of Control Specific Binding
CK2 = CK2 (Homo sapiens, UniProt P68400); conditions: 1 µM, ATP at Km
ETB (h) = target: T15, ETB (h) (Homo sapiens, UniProt P24530); assay: CEREP binding assay; conditions: agonist radioligand, read-out: % Inhibition of Control Specific Binding
T15 construct: purchased Millipore (KinaseProfiler) kinase panel

ROCK-II = ROCK-II (Homo sapiens, UniProt O75116); assay: Kinase panel (Millipore); assay type: biochemical; conditions: 1 µM, ATP at Km
motilin (h) = motilin (h) (Homo sapiens, UniProt O43193); assay: CEREP binding assay; conditions: agonist radioligand, read-out: % Inhibition of Control Specific Binding
FLT4 = target: T16, FLT4 (Homo sapiens, UniProt P35916); assay: Kinase panel (Millipore); assay type: biochemical; conditions: 1 µM, ATP at Km
T16 construct: purchased Millipore (KinaseProfiler) kinase panel

SAPK2A(T106M) = SAPK2A(T106M) (Homo sapiens, UniProt Q16539, T106M); conditions: 1 µM, ATP at Km
TAO1 = target: T17, TAO1 (Homo sapiens, UniProt Q7L7X3); assay: Kinase panel (Millipore); assay type: biochemical; conditions: 1 µM, ATP at Km
T17 construct: purchased Millipore (KinaseProfiler) kinase panel

FMS(Y969C) = FMS(Y969C) (Homo sapiens, UniProt P07333, Y969C); conditions: 1 µM, ATP at Km
ABL = ABL (Homo sapiens, UniProt P00519); assay: Kinase panel (Millipore); assay type: biochemical; conditions: 1 µM, ATP at Km
SGK3 = target: T18, SGK3 (Homo sapiens, UniProt Q96BR1); assay: Kinase panel (Millipore); assay type: biochemical; conditions: 1 µM, ATP at Km
T18 construct: purchased Millipore (KinaseProfiler) kinase panel

5-HT2C (h) = 5-HT2C (h) (Homo sapiens, UniProt P28335); assay: biochemical; conditions: read-out: % Inhibition of Control Specific Binding
cMET (M1268T) = cMET (M1268T) (Homo sapiens, UniProt P08581, M1250T); conditions: 1 µM, ATP at Km
SAPK2A = SAPK2A (Homo sapiens, UniProt Q16539); assay: Kinase panel (Millipore); assay type: biochemical; conditions: 1 µM, ATP at Km
NEK7 = NEK7 (Homo sapiens, UniProt Q8TDX7); assay: Kinase panel (Millipore); assay type: biochemical; conditions: 1 µM, ATP at Km
Chain of NEK7 (Q8TDX7 whole entry): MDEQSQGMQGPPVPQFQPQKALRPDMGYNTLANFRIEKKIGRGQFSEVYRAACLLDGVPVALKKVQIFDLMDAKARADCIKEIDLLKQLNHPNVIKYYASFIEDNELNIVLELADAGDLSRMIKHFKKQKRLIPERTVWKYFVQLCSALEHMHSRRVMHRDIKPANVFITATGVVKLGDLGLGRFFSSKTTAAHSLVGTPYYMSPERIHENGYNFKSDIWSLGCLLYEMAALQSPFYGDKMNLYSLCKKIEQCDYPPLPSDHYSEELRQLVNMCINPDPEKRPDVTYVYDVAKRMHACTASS

EPHB4 = target: T19, EPHB4 (Homo sapiens, UniProt P54760); assay: Kinase panel (Millipore); assay type: biochemical; conditions: 1 µM, ATP at Km
T19 construct: purchased Millipore (KinaseProfiler) kinase panel
T19 sequence (P54760 16-987): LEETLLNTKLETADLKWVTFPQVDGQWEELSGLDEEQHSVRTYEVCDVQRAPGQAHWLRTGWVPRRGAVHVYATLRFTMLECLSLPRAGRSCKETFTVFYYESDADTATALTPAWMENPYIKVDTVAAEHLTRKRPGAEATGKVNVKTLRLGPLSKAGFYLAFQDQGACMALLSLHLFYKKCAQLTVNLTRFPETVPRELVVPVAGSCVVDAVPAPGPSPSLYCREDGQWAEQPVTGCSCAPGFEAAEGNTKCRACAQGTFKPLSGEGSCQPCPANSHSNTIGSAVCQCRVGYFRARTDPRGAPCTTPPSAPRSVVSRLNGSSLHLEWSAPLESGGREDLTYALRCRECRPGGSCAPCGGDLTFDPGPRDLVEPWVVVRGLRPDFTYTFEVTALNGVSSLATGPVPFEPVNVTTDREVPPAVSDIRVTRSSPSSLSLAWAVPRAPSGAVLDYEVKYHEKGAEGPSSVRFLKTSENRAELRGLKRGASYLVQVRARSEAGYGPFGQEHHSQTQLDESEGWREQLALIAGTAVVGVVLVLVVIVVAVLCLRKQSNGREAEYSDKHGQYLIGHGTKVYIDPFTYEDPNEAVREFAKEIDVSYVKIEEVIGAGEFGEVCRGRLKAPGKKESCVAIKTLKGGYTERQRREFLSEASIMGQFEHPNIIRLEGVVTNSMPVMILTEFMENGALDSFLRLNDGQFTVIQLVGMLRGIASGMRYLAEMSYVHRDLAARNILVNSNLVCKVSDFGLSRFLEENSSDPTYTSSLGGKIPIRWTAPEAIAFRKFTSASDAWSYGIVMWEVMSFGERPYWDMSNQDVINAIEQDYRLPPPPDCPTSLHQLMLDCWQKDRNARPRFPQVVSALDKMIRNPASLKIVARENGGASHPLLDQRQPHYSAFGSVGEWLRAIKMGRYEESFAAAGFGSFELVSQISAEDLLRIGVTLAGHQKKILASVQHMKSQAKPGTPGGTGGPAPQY

SAPK2B = SAPK2B (Homo sapiens, UniProt Q15759); assay: Kinase panel (Millipore); assay type: biochemical; conditions: 1 µM, ATP at Km

Cn1ncc2cc(-c3cnc(N)c(Cl)c3N3CCC4(CCNC4=O)CC3)ccc21 [Compound 109, 8-(2-Amino-3-chloro-5-(1-methyl-1H-indazol-5-yl)pyridin-4-yl)-2,8-diazaspiro[4.5]decan-1-one]
% effect (EPHB2): -3%
% effect (EGFR(T790M,L858R)): 0%
inhibition at 10 µM [1]: 4%
% Inhibition of Control Specific Binding (AMPA): 3%
% effect (DMPK): 4%
% effect (EGFR(L858R)): -4%
% effect (SAPK3): 4%
% effect (CKIT(V654A)): 9%
inhibition at 10 µM (H3 (h)): 3%
inhibition at 10 µM (alpha 2B (h)): 10%
% effect (PDGFRALPHA): 10%
% effect (EPHA5): -9%
inhibition at 10 µM (A1 (h)): -4%
% effect (AXL): -4%
% effect (DDR2): 19%
% effect (MINK): 22%
% effect (PKD2): -1%
% effect (PASK): -20%
% effect (GSK3BETA): -11%
% effect (CK1GAMMA2): 5%
% effect (CHK2): -2%
% effect (TAK1): -14%
% effect (NLK): -5%
% effect (DAPK1): -8%
% effect (IR): -5%
inhibition at 10 µM [2]: -6%
% effect (CK2): 3%
inhibition at 10 µM (ETB (h)): -23%
% effect (ROCK-II): -10%
inhibition at 10 µM (motilin (h)): 12%
% effect (FLT4): -38%
% effect (SAPK2A(T106M)): 2%
% effect (TAO1): 6%
% effect (FMS(Y969C)): -43%
% effect (ABL): -15%
% effect (SGK3): 13%
inhibition at 10 µM (5-HT2C (h)): 6%
% effect (cMET (M1268T)): 1%
% effect (SAPK2A): -6%
% effect (NEK7): 15%
% effect (EPHB4): -3%
% effect (SAPK2B): -3%
